How the values were obtained:
Cdc42 = Cdc42 (Homo sapiens, UniProt P60953); assay: nucleotide exchange: intersectin-induced association of mant-GDP with Cdc42; assay type: biochemical; details: FIG. 1b
Source text: (§1) For example, even at 10 times the IC50 of Cdc42, a 50% inhibition of the association of mant-GDP with Rac or Rho was not achieved.

Rac = Rac (Homo sapiens, UniProt P63000); assay: nucleotide exchange: Tiam-induced exchange of mant-GDP with Rac; assay type: biochemical
Source text: as §1

Rho = Rho (Homo sapiens, UniProt P61586); assay: nucleotide exchange: Large-induced exchange of mant-GDP with Rho; assay type: biochemical
Source text: as §1

PAK1, WASP, WAVE, ROCK = assay: Example 7 phosphorylation of downstream effectors by western blot; assay type: cell-based, murine LDBM and human HCB cells; details: HCB and LDBM cells
Experimental: To exclude the inhibitory effect of CASIN on other Rac isoforms, Rho GTPases, and Ras, broader effector pull-down experiments are performed on these possible candidates with gradient doses of CASIN in LDBM and HCB cells as previously described. In addition, CASIN has been indicated as a noncovalent and reversible inhibitor in Xenopus egg extract. To confirm it, reversibility is monitored in this set of effector pull-down experiments. Four treatment groups are divided for both LDBM and HCB cells: (1) Serum starvation 20 h; (2) Serum starvation 20 h+growth factors stimulation; (3) Serum starvation 20 h+CASIN treatment (doses: 1, 2.5, 5, and 10 μM) 3 h+growth factor stimulation; (4) Serum starvation 20 h+CASIN treatment (doses: 1, 2.5, 5, and 10 μM) 3 h+wash the cells, and culture for another 3 h for recovery+growth factors stimulation. […] Bound proteins are analyzed by immunoblotting with respective antibodies (BD Biosciences). Furthermore, changes of downstream targets of Cdc42, Rac, and Rho under the four treatment groups are assessed. Phosphorylation status of PAK1, WASP (effectors of Cdc42), WAVE (effector of Rac), and ROCK (effector of Rho) are monitored by western blots using respective antibodies.

C57Bl/6 mice = assay: Example 7 PK/PD analysis of HPC mobilization in C57Bl/6 mice; assay type: in vivo
Experimental: The mice are i.p. administered with CASIN at 6 different doses (0.5, 1.0, 2.5, 5.0, 7.5, and 10 mg/Kg), and ˜1 ml blood are collected by cardiac puncture for PD and PK analysis predosing, 6, 12, 24, 36, 48, 60, and 72 h postdosing. 5 mice are used for each group. To do PK analysis, concentrations of CASIN in plasma are determined by high-pressure liquid chromatography (HPLC) with electrochemical detection, and then all compartmental and noncompartmental analyses are performed using WinNonlin Professional (version 2.0) software (Pharsight, Cary, N.C.). The maximum drug concentration in serum (Cmax) and the time to Cmax are determined directly from the concentration-time curves. Terminal elimination half-life is determined by linear regression of the log-transformed final concentration-time points. As for the PD analysis, the effects of CASIN on mobilization of CFU-GM, CFU-GEMM, BFU-E and CFU-E to the blood of C57Bl/6 mice are evaluated. By using the rest of blood, assays for CFU-GM, CFU-GEMM, BFU-E and CFU-E are performed using ingredients and cytokine combinations, and then the plot of CFU number versus time across the dose groups is drawn. In this way, the optimal dose and time for mobilization in C57Bl/6 mice are determined. […]

[1] = tested on: C57Bl/6, C3H/HeJ and DBA/2 mice; assay: Example 7 HPC mobilization in comparison and combination with G-CSF; details: mouse, in vivo
Experimental: Broad interindividual variability exists in mobilization of HSC/Ps in different strains of mice and man. In some patients, G-CSF is a poor mobilizer. Therefore, the mobilizing capability of CASIN in comparison with G-CSF is evaluated, and in combination with G-CSF, in strains of mice that were reported to differ in responsiveness to G-CSF. Besides C57Bl/6, included in this set of experiments are C3H/HeJ and DBA/2 mice which respond very well to the mobilizing effects of G-CSF compared with C57Bl/6 mice. For each strain of mice, four groups are divided according to regimens used for mobilization: (1) Control medium; (2) CASIN administration; (3)G-CSF: twice a day for 2 days (4) G-CSF plus CASIN administration. Mice are bled 18 h after the last injection, and blood is plated in triplicate for CFU-C assay. Numbers of HPCs in CFU-E, BFU-E, CFU-GM, and CFU-GEMM are calculated per ml of blood later on reflecting the mobilization capacity of different regimens on HPCs.

LT-HSCs = assay: Example 9 double-labeling of LT-HSC localization in the niche; assay type: in vivo, mice; details: 48 hours or earlier after mobilization
Experimental: These studies use a double-labeling technique to monitor the localization change of LT-HSCs upon mobilization by CASIN.
AMD3100 and G-CSF induced mobilization are used as positive controls, while the control medium is used as a negative control. DBA/2, PeP3b, and C57Bl/6 mice are used in parallel to test the effects of variable mobilization capacity on the movement of LT-HSCs.
Basically, mice are fed BrdU (0.8 mg/ml) in drinking water for 10 days, followed by a chase period of seventy days, after which only the slow cycling LT-HSCs are found to retain the BrdU-label. At the end of the chase period of BrdU labeling, CASIN, AMD3100, G-CSF, or control is administrated on the mice and 3H-TdR is pulse-labeled 1 h before sacrificing the mice. Mice are sacrificed at different time points post administration of mobilizers or control in order to reflect the kinetic changes of HSC localization upon mobilization. And then bone sections are immunochemically stained with anti-BrdU antibody and alkaline phosphatase-labeled secondary IgG, followed by visualization with red substrate. In the meantime, autoradiography is performed to visualize cell incorporated with 3H-TdR. A cell is considered to be double-labeled if it contains greater than 5 silver grains per nucleus over a bright nuclear pattern of red staining.

Rho, sequence (P61586 whole entry): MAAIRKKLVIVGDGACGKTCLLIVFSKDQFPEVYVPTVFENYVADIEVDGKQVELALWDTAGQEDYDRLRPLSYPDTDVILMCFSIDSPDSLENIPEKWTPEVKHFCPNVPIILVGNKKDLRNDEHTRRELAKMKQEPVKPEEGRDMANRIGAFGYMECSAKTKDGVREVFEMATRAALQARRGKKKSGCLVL
Cdc42, sequence (P60953 whole entry, species assumed): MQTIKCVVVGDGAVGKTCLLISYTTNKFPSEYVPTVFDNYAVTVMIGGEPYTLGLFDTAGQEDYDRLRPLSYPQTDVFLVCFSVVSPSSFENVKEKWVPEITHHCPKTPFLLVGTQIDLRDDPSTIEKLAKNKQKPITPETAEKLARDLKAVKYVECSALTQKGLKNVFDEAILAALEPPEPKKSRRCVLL

Question: How did the “association of mant-GDP with Cdc42 induced by intersectin” value (Cdc42) turn out when `OCCNC1CCCc2c1[nH]c1ccc(-c3ccccc3)cc21` (centres unmarked) [CASIN] was run?
Answer: dose-dependent inhibition

Question: And the “Tiam induced nucleotide exchange of mant-GDP with Rac” value (Rac; FIG. 6)?
Answer: did not affect

Question: And the “inhibition of the association of mant-GDP with Rac” value (Rac; at 10 times the IC50 of Cdc42)?
Answer: < 50%

Question: And the “Large induced nucleotide exchange of mant-GDP with Rho” value (Rho; FIG. 6)?
Answer: did not affect

Question: And the “inhibition of the association of mant-GDP with Rho” value (Rho; at 10 times the IC50 of Cdc42)?
Answer: < 50%

Question: What about the “phosphorylation of PAK1 and WASP” value (PAK1, WASP, WAVE, ROCK) of the same compound?
Answer: inhibit

Question: And the “phosphorylation of WAVE and ROCK” value (PAK1, WASP, WAVE, ROCK)?
Answer: without affecting

Question: And the “mobilization after multiple injections one half-life time apart” value (C57Bl/6 mice; C57/B16)?
Answer: stronger mobilization effects than that of single CASIN injection

Question: And the “mobilization of HPCs (colony numbers versus dose)” value (C57Bl/6 mice; single i.p. dose, C57Bl/6 mice)?
Answer: dose-dependent pattern

Question: What about the “mobilization in comparison and in combination with G-CSF” value [1] of the same compound?
Answer: more effective mobilization than G-CSF

Question: What about the “number of BrdU-labeled LT-HSC in bone marrow niche” value (LT-HSCs) of the same compound?
Answer: reduced

From patent US9433663B2, “Mobilization of hematopoietic stem cells” (Children's Hospital Medical Center, priority 2008, dated 2016)
